For assay [1], the system named is OV2944 cells. Kind of assay: Analysis of survival after cell transfer (Kaplan Meier). The class given is in vivo, mouse. The following applies: intraperitoneal, 3 nmoles/two days. On the procedure:
The purified OV2944 cells expressing the fluorescent protein tdTomato were transferred into the abdominal cavity of mice (B6C3F1 strain, 9 weeks old, female, CLEA Japan, Inc.) (1×10^5 cells/mouse). […] On Day 21, the abdominal organs were removed, and OV2944 cells expressing the fluorescent protein tdTomato in the liver were observed using a fluorescence stereomicroscope OV110 (Olympus Corporation).
Intraperitoneal injection was carried out in the same manner as in Experimental Example 13-1 and Experimental Example 13-2, and survival analysis was carried out thereafter to provide Experimental Example 14-1 and Experimental Example 14-2. For the survival curve according to the Kaplan Meier method, a significant difference was analyzed by log-rank test.

Assay [2] concerns OV2944 cells. Kind of assay: Cell binding experiment (fluorescently labeled protein/peptide, confocal microscope). Also noted: species or system mouse. The following applies: for cell-binding ability (fluorescence intensity): 5 μM rhodamine-labeled partial peptides, ranking. On the procedure: The OV2944-HM-1 cell line (which may be referred to as “OV2944 cells” or, simply, “cells”), which is a commonly used cell line, was used. OV2944 cells were obtained from RIKEN BioResource Center (Cell No. RCB1483), and cultured in DMEM medium (+10% FBS) according to a conventional method.
Cultured cells were fixed on a glass plate (4% paraformaldehyde/phosphate buffer, room temperature, 10 minutes), and treated with sheep serum. Thereafter, mouse dicalcin (5 μM) fluorescently labeled with tetramethylrhodamine (TMR) was reacted with the cells in the presence of 1 mM CaCl2 (4° C., overnight). After washing with TBS buffer, analysis was carried out using a confocal microscope (Carl Zeiss). Further, cell nuclei were stained with DAPI.
An experiment was carried out in the same manner as in Experimental Example 1-1 except that the reaction was carried out in the presence of 1 mM EGTA (which may be referred to as “in the absence of calcium”).
An experiment was carried out in the same manner as in Experimental Example 1-1 except that immunostaining was carried out using an anti-mouse dicalcin antibody (Catalog No. MAB5167, R&D Systems) as a primary antibody, and an Alexa Fluor (registered trademark) 594-labeled anti-rat IgG antibody (Catalog No. A11007, Invitrogen) as a secondary antibody.
An experiment was carried out in the same manner as in Experimental Example 1-1 except that each of partial peptides p1 to p7 (5 μM) fluorescently labeled with rhodamine was used.

For assay [3], the system named is OV2944 cells. Nature of the assay: Cell invasion assay (Matrigel Invasion Chamber). As to conditions: for cell invasion, ranking of suppression: 8 μM each, versus 10 μM BSA. The class given is cell-based, mouse. As for the experimental part: (§1) Cell invasion was analyzed using a BD BioCoat (registered trademark) Matrigel Invasion Chamber (Becton, Dickinson and Company). First, a certain amount of cells (about 1×10^5 cells/well) were treated with 2 μM, 8 μM, or 20 μM mouse dicalcin at room temperature for 20 minutes.
(§2) The treated cells were washed by centrifugation treatment, and then plated in the upper chamber of a transwell preliminarily coated with Matrigel, followed by performing culture using DMEM (+10% FBS) as a medium.
About 16 hours later, the invading cells that had migrated into the lower chamber were fixed using 4% paraformaldehyde/phosphate buffer at room temperature for 10 minutes, and then stained with crystal violet, followed by excision of the membrane, embedding on a slide, and counting of the cell number.

In assay [4] the test system is OV2944 cells. Kind of assay: Cell adhesion assay (Matrigel). Format: cell-based, mouse. As to conditions: 8 or 20 μM. As for the experimental part:
First, a certain amount of cells (about 1×10^5 cells/well) were treated with 8 μM or 20 μM mouse dicalcin at room temperature for 20 minutes. After coating a 24-well plate with, and allowing gelation of, BD Matrigel (registered trademark) (Becton, Dickinson and Company), the pretreated cells were washed and plated therein.
About 1 hour later, nonadherent cells were aspirated. After washing, adherent cells were fixed using 4% paraformaldehyde/phosphate buffer at room temperature for 10 minutes, and then stained with crystal violet, followed by counting of the cell number. The adhesion index was calculated as {(number of stained cells)/(number of plated cells)}×100(%). Normalization was carried out by the later-mentioned result of Experimental Example 3-2, which was taken as 100(%).
An experiment was carried out in the same manner as in Experimental Example 3-1 except that mouse dicalcin was not added.
An experiment was carried out in the same manner as in Experimental Example 3-1 except that 10 μM BSA was used instead of mouse dicalcin.

Assay [5] deals with OV2944 cells. Kind of assay: Cell survival assay (crystal violet). The following applies: 20 μM; versus 10 μM BSA. Format: cell-based, mouse. As for the experimental part:
(§3) First, a certain amount of cells (about 1×10^5 cells/well) were treated with 20 μM mouse dicalcin at room temperature for 20 minutes. The cells were then washed and aliquoted into a 96-well plate, followed by performing culture. One hour later, after washing with PBS buffer, the cells were fixed using 4% paraformaldehyde/phosphate buffer at room temperature for 10 minutes. The cells were then stained with crystal violet and solubilized, followed by measuring the absorbance (measurement wavelength, 550 nm) in order to analyze the cell survival rate. The cell survival rate was calculated as {(number of stained cells)/(number of plated cells)}×100(%). Normalization was carried out by the later-mentioned result of Experimental Example 4-2, which was taken as 100(%).
An experiment was carried out in the same manner as in Experimental Example 4-1 except that 10 μM BSA was used instead of mouse dicalcin.

Assay [6] deals with OVCAR cells. Kind of assay: Cell invasion assay. Format: cell-based, human. As for the experimental part:
as §1, §2
About 16 hours later, the invading cells that had migrated into the lower chamber were fixed using 4% paraformaldehyde/phosphate buffer at room temperature for 10 minutes, and then stained with crystal violet, followed by excision of the membrane, embedding on a slide, and counting of the cell number. The invasion index was calculated as {(number of stained cells)/(number of plated cells)}×100(%), and normalized by the later-mentioned result of Experimental Example 2-2, which was taken as 100(%).
The OVCAR-3 cell line (which may be referred to as “OVCAR cells” or, simply, “cells”), which is a commonly used cell line, was used. OVCAR cells were obtained from RIKEN BioResource Center (Cell No. RCB2135), and cultured in DMEM medium (+10% FBS) according to a conventional method. This line is a human ovarian cancer (adenocarcinoma)-derived cell line.
An analysis was carried out in the same manner as in Experimental Example 2-1 except that OVCAR cells were used as the cells, and that 8 μM or 20 μM human dicalcin was used instead of mouse dicalcin.
An analysis was carried out in the same manner as in Experimental Example 9-1 except that 20 μM BSA was used instead of human dicalcin.
An analysis was carried out in the same manner as in Experimental Example 2-1 except that OVCAR cells were used as the cells, and that 2 μM or 10 μM hDC-p6 was used as a partial peptide. Statistical analysis was carried out by unpaired Student t-test in order to analyze a significant difference.

The test system of assay [7] is OVCAR cells. Kind of assay: Cell survival assay. The class given is cell-based, human. As to conditions: 20 μM; versus 10 μM BSA. On the procedure: as §3
An experiment was carried out in the same manner as in Experimental Example 4-1 except that OVCAR cells were used as the cells, and that 20 μM human dicalcin was used instead of mouse dicalcin.
An experiment was carried out in the same manner as in Experimental Example 10-1 except that 10 μM BSA was used instead of human dicalcin.

“p1: partial peptide of mouse dicalcin, SEQ ID NO: 12, PTETERCIE; used as control peptide (listed as Mus musculus)”: in the assay on OV2944 cells [1], the “average number of days of survival” value is recorded as 32 days.

Consider “p2: partial peptide of mouse dicalcin, SEQ ID NO: 13, SLIAVFQKY (listed as Mus musculus)”, for which the “cell-binding ability (fluorescence intensity)” value (“cell-binding ability” below) in the assay with OV2944 cells [2] is listed as “second highest cell-binding ability”. Besides, the “cell invasion, ranking of suppression” value in the assay with OV2944 cells [3] was “followed by p2, p′7, and p5 in this order”.

For “p5: partial peptide of mouse dicalcin, SEQ ID NO: 16, MMKKLDLNCDG (listed as Mus musculus)”, the “cell-binding ability” value in the assay with OV2944 cells [2] is on record as “second highest cell-binding ability”. The “cell invasion, ranking of suppression” value in the assay on OV2944 cells [3] was “followed by p2, p′7, and p5 in this order”.

Consider “p7: partial peptide of mouse dicalcin, SEQ ID NO: 18, GGLAIACHDSFIQTSQKRI (listed as Mus musculus)”, for which the “cell-binding ability” value in the assay on OV2944 cells [2] is listed as “second highest cell-binding ability”. For the same molecule, in the assay on OV2944 cells [3], the “cell invasion, ranking of suppression” value is “followed by p2, p′7, and p5 in this order”.

With “p4: partial peptide of mouse dicalcin, SEQ ID NO: 15, MNTELAAFTKNQKDPGVLDR (listed as Mus musculus)”, the “cell-binding ability” value in the assay with OV2944 cells [2] is “third highest cell-binding ability”.

B1: mouse dicalcin: recombinant full-length mouse dicalcin (S100A11), SEQ ID NO:11, expressed in E. coli (protein, listed as Mus musculus)
chain: PTETERCIESLIAVFQKYSGKDGNNTQLSKTEFLSFMNTELAAFTKNQKDPGVLDRMMKKLDLNCDGQLDFQEFLNLIGGLAIACHDSFIQTSQKRI
B1: the “binding to the cells (fluorescence)” value with OV2944 cells [2] (5 μM TMR-labeled, 1 mM CaCl2 versus 1 mM EGTA) is “larger amount of mouse dicalcin binds to the cells in the presence of calcium”. The “cell invasion (invasion index)” value in the assay with OV2944 cells [3] (2, 8 or 20 μM, normalized to 10 μM BSA) is reported as “suppresses the cell invasion in a concentration-dependent manner”. Besides, in the assay on OV2944 cells [4], the “cell adhesion (adhesion index)” value is on record as “suppresses the cell adhesion in a concentration-dependent manner”. In addition, the cell survival rate result in the assay on OV2944 cells [5] was “does not affect the survival of the cells”.

B2: human dicalcin: recombinant full-length human dicalcin (S100A11), SEQ ID NO:1 (protein, listed as Homo sapiens)
chain: AKISSPTETERCIESLIAVFQKYAGKDGYNYTLSKTEFLSFMNTELAAFTKNQKDPGVLDRMMKKLDTNSDGQLDFSEFLNLIGGLAMACHDSFLKAVPSQKRT
With B2, the invasion index in the assay with OVCAR cells [6] (20 μM, normalized to BSA as 100%) is given as 43.9%. Further, in the assay with OVCAR cells [6] (8 or 20 μM human dicalcin, versus 20 μM BSA), the “cell invasion (invasion index)” value is on record as “suppresses the cell invasion in a concentration-dependent manner”. In the assay with OVCAR cells [7], the cell survival rate entry was “does not affect the survival of the cells”.

For the origin of these results see patent US11696938B2, “Human cancer cell metastasis inhibitory agent and human cancer cell determination agent” (priority 2017, dated 2023).
